Like-named read-outs stand apart in the source and are kept apart here.
Molecular target: T1, PDE9A2 (Homo sapiens, UniProt O76083)
T1 construct: purchased Reaction Biology Corporation, Malvern, Pa
Assay: Phosphodiesterase enzyme screening assay, PDE9A2
Format: biochemical
Details: read-out: Band (PDE9A2 IC50)
Excerpt: Compounds of the invention were screened against PDE1A, PDE1B, PDE2A, PDE3A, PDE3B, PDE4A1A, PDE4B1, PDE4D3, PDE5A1, PDE6C, PDE7A, PDE8A1, PDE9A2, PDE10A2 AND PDE11A isoforms of the phosphodiesterase enzyme to determine activity and overall selectivity through comparative analysis. […] Where 8-methoxy-IBMX and Zaprinast were used as reference inhibitors.
The phosphodiesterase enzyme isoforms were obtained from a commercial retailer (Reaction Biology Corporation, Malvern, Pa.) for use in the instant screening assay.
The analysis was completed using the Caliper LabChip 3000 and a 12-sipper LabChip. LabChip assays are separations-based, meaning that the product and substrate are electrophoretically separated, thereby minimizing interferences and yielding the highest data quality available on any screening platform. […] High Z′ values, few false positives, few false negatives and analytical quality reproducibility are the reasons cited for the increasing reliance on the LabChip assays.
The off-chip incubation mobility-shift phosphodiesterase assay uses a microfluidic chip to measure the conversion of a fluorescent cyclic AMP substrate to a 5′-AMP product, or a cyclic GMP substrate to a 5′-GMP product. The reaction mixture, from a microtiter plate well, is introduced through a capillary sipper onto the chip, where the fluorescent substrate and product are separated by electrophoresis and detected via laser-induced fluorescence. […] The precision of microfluidics allows researchers to detect subtle interactions between drug candidates and therapeutic targets.
Reactions were carried out in 100 mM HEPES (pH 7.5), 5 mM MgCl2, 1 mM DTT, 0.003% Brij, 4.0 μM cGMP substrate. The reaction was started by addition of cGMP or cAMP and incubated for 1 hour at R.T. The reaction was terminated by the addition of stop buffer containing 100 mM HEPES (pH 7.5), 15 mM EDTA, 0.015% Brij-35, 5% DMSO. Cyclic AMP/GMP substrate and 5′-AMP/5′-GMP product were separated by charge using electrophoretic mobility shift. Product formed was compared to control wells to determine inhibition or enhancement of enzyme activity.
Data points were averages of quadruplicate wells and error bars represented the SEM for each point.

[1] = Table 1, 10 concentrations, 4.0 μM cGMP substrate, 1 hour at R.T.
[2] = 4.0 μM cGMP substrate, 1 hour at R.T.

T1 sequence (O76083 1-533 isoform O76083-2): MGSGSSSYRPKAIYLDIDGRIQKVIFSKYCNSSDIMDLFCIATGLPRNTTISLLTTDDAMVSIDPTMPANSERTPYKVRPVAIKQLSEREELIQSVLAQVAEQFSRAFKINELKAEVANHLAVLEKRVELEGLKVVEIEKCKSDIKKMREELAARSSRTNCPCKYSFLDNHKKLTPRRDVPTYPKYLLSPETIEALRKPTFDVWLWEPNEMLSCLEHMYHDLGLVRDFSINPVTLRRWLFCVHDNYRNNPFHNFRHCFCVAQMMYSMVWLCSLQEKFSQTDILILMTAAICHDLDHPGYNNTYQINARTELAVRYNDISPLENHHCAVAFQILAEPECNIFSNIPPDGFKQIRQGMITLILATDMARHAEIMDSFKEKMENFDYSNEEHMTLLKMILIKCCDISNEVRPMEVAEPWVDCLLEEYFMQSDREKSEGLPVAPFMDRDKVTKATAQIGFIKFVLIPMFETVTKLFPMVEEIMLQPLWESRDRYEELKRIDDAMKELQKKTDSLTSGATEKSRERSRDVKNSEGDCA

Row | Molecule | IC50 [1] | further results
1 | CC1CN(Cc2ncccn2)CC1c1nn2c(-c3ccccc3)ncc2c(=O)[nH]1 (single isomer, unassigned; (+)) [(+)-2-((3,4-trans)-4-methyl-1-(pyrimidin-2-ylmethyl)pyrrolidin-3-yl)-7-phenylimidazo[5,1-f][1,2,4]triazin-4(3H)-one] | – | IC50: < 1000 nM
2 | (+)-2-((3,4-trans)-1-benzyl-4-methylpyrrolidin-3-yl)-7-(piperidin-4-yl)imidazo[1,5-f][1,2,4]triazin-4(3H)-one | 1000 to 10000 nM | –
3 | CC1CN(Cc2ccccc2)CC1c1nn2c(C3CCN(C(=O)OC(C)(C)C)CC3)ncc2c(=O)[nH]1 (single isomer, unassigned; (-)) [(−)-tert-butyl 4-(2-((3,4-trans)-1-benzyl-4-methylpyrrolidin-3-yl)-4-oxo-3,4-dihydroimidazo[1,5-f][1,2,4]triazin-7-yl)piperidine-1-carboxylate] | > 10000 nM | –
4 | CC1CN(CC2CCCC2)CC1c1nn2c(C3CCOCC3)ncc2c(=O)[nH]1 (single isomer, unassigned; (+)) [(+)-2-((3,4-trans)-1-(cyclopentylmethyl)-4-methylpyrrolidin-3-yl)-7-(tetrahydro-2H-pyran-4-yl)imidazo[5,1-f][1,2,4]triazin-4(3H)-one] | – | IC50: < 1000 nM
5 | CC1CN(Cc2nc3ccccn3n2)CC1c1nn2c(-c3ccccc3C(F)(F)F)ncc2c(=O)[nH]1 (single isomer, unassigned; (+)) [(+)-2-((3,4-trans)-1-([1,2,4]triazolo[1,5-a]pyridin-2-ylmethyl)-4-methylpyrrolidin-3-yl)-7-(2-(trifluoromethyl)phenyl)imidazo[5,1-f][1,2,4]triazin-4(3H)-one] | – | IC50 [2]: < 1000 nM
6 | CC1CN(C(=O)c2ccccc2C#N)CC1c1nn2c(C3CCOCC3)ncc2c(=O)[nH]1 (single isomer, unassigned; (+)) [(+)-2-((3,4-trans)-3-methyl-4-(4-oxo-7-(tetrahydro-2H-pyran-4-yl)-3,4-dihydroimidazo[5,1-f][1,2,4]triazin-2-yl)pyrrolidine-1-carbonyl)benzonitrile] | 1000 to 10000 nM | –
7 | CC1CN(Cc2cccnc2)CC1c1nn2c(-c3ccc(F)cc3)ncc2c(=O)[nH]1 (single isomer, unassigned; (+)) [(+)-7-(4-fluorophenyl)-2-((3,4-trans)-4-methyl-1-(pyridin-3-ylmethyl)pyrrolidin-3-yl)imidazo[5,1-f][1,2,4]triazin-4(3H)-one] | – | IC50: < 1000 nM
8 | CC1CN(C(=O)c2ncccn2)CC1c1nn2c(C3CCOCC3)ncc2c(=O)[nH]1 (single isomer, unassigned; (-)) [(−)-2-((3,4-trans)-4-methyl-1-(pyrimidine-2-carbonyl)pyrrolidin-3-yl)-7-(tetrahydro-2H-pyran-4-yl)imidazo[5,1-f][1,2,4]triazin-4(3H)-one] | < 1000 nM | –
9 | CC1CN(C(=O)c2ccccc2)CC1c1nn2c(C3CCOCC3)ncc2c(=O)[nH]1 (single isomer, unassigned; (+)) [(+)-2-((3,4-trans)-1-benzoyl-4-methylpyrrolidin-3-yl)-7-(tetrahydro-2H-pyran-4-yl)imidazo[5,1-f][1,2,4]triazin-4(3H)-one] | 1000 to 10000 nM | –
10 | Cc1cnccc1-c1ncc2c(=O)[nH]c(C3CN(Cc4ccc(F)cc4)CC3C)nn12 (single isomer, unassigned; (+)) [(+)-2-((3,4-trans)-1-(4-fluorobenzyl)-4-methylpyrrolidin-3-yl)-7-(3-methylpyridin-4-yl) imidazo [5,1-f] [1,2,4] triazin-4 (3H)-one] | – | IC50 [2]: < 1000 nM
11 | CC1CN(Cc2ccccc2)CC1c1nn2c(C3CCOCC3)ncc2c(=O)[nH]1 (single isomer, unassigned; (+)) [(+)-2-((3,4-trans)-1-benzyl-4-methylpyrrolidin-3-yl)-7-(tetrahydro-2H-pyran-4-yl)imidazo[1,5-f][1,2,4]triazin-4(3H)-one] | < 1000 nM | –
12 | CC1CN(Cc2ncc(C(F)(F)F)cn2)CC1c1nn2c(C3CCOCC3)ncc2c(=O)[nH]1 (single isomer, unassigned; (+)) [(+)-2-((3,4-trans)-4-methyl-1-((5-(trifluoromethyl)pyrimidin-2-yl)methyl)pyrrolidin-3-yl)-7-(tetrahydro-2H-pyran-4-yl)imidazo[5,1-f][1,2,4]triazin-4(3H)-one] | – | IC50 (Table 2, 10 concentrations, 4.0 μM cGMP substrate, 1 hour at R.T.): < 1000 nM
13 | CC1CN(C(=O)c2ccncn2)CC1c1nn2c(C3CCOCC3)ncc2c(=O)[nH]1 (single isomer, unassigned; (-)) [(−)-2-((3,4-trans)-4-methyl-1-(pyrimidine-4-carbonyl)pyrrolidin-3-yl)-7-(tetrahydro-2H-pyran-4-yl)imidazo[5,1-f][1,2,4]triazin-4(3H)-one] | < 1000 nM | –
14 | Cc1ccc(F)cc1-c1ncc2c(=O)[nH]c(C3CN(Cc4ccccc4)CC3C)nn12 (single isomer, unassigned; (-)) [(−)-2-((3,4-trans)-1-benzyl-4-methylpyrrolidin-3-yl)-7-(5-fluoro-2-methylphenyl)imidazo[1,5-f][1,2,4]triazin-4(3H)-one] | 1000 to 10000 nM | –
15 | CC1CN(C(=O)c2ccc(F)cc2)CC1c1nn2c(C3CCOCC3)ncc2c(=O)[nH]1 (single isomer, unassigned; (-)) [(−)-2-((3,4-trans)-1-(4-fluorobenzoyl)-4-methylpyrrolidin-3-yl)-7-(tetrahydro-2H-pyran-4-yl)imidazo[5,1-f][1,2,4]triazin-4(3H)-one] | < 1000 nM | –
16 | CC1CN(Cc2ccc(Cl)cc2)CC1c1nn2c(-c3cccc(F)c3)ncc2c(=O)[nH]1 (single isomer, unassigned; (+)) [(+)-2-((3,4-trans)-1-(4-chlorobenzyl)-4-methylpyrrolidin-3-yl)-7-(3-fluorophenyl)imidazo[5,1-f][1,2,4]triazin-4(3H)-one] | – | IC50: 1000 to 10000 nM
17 | CC1CN(S(=O)(=O)c2ccccc2C#N)CC1c1nn2c(C3CCOCC3)ncc2c(=O)[nH]1 (single isomer, unassigned; (+)) [(+)-2-(((3,4-trans)-3-methyl-4-(4-oxo-7-(tetrahydro-2H-pyran-4-yl)-3,4-dihydroimidazo[5,1-f][1,2,4]triazin-2-yl)pyrrolidin-1-yl)sulfonyl)benzonitrile] | 1000 to 10000 nM | –
18 | CC1CN(Cc2ncccn2)CC1c1nn2c(C3CCOC3)ncc2c(=O)[nH]1 (single isomer, unassigned; (+)) [(+)-2-((3,4-trans)-4-methyl-1-(pyrimidin-2-ylmethyl)pyrrolidin-3-yl)-7-(tetrahydrofuran-3-yl)imidazo[5,1-f][1,2,4]triazin-4(3H)-one] | < 1000 nM | –
19 | Cc1ccncc1-c1ncc2c(=O)[nH]c(C3CN(Cc4ccc(F)cc4)CC3C)nn12 (single isomer, unassigned; (+)) [(+)-2-((3,4-trans)-1-(4-fluorobenzyl)-4-methylpyrrolidin-3-yl)-7-(4-methylpyridin-3-yl)imidazo[5,1-f][1,2,4]triazin-4(3H)-one] | – | IC50: < 1000 nM
20 | CC1CN(Cc2ccc(C#N)cc2)CC1c1nn2c(C3CCOCC3)ncc2c(=O)[nH]1 (single isomer, unassigned; (+)) [(+)-4-(((3,4-trans)-3-methyl-4-(4-oxo-7-(tetrahydro-2H-pyran-4-yl)-3,4-dihydroimidazo[5,1-f][1,2,4]triazin-2-yl)pyrrolidin-1-yl)methyl)benzonitrile] | < 1000 nM | –
21 | CC1CN(Cc2nc3ccccc3[nH]2)CC1c1nn2c(-c3ccc(F)cc3)ncc2c(=O)[nH]1 (single isomer, unassigned; (+)) [(+)-2-((3,4-trans)-1-((1H-benzo[d]imidazol-2-yl)methyl)-4-methylpyrrolidin-3-yl)-7-(4-fluorophenyl)imidazo[5,1-f][1,2,4]triazin-4(3H)-one] | – | IC50: < 1000 nM
22 | CC1CN(Cc2ccc3ccccc3n2)CC1c1nn2c(C3CCOCC3)ncc2c(=O)[nH]1 (single isomer, unassigned; (+)) [(+)-2-((3,4-trans)-4-methyl-1-(quinolin-2-ylmethyl)pyrrolidin-3-yl)-7-(tetrahydro-2H-pyran-4-yl)imidazo[5,1-f][1,2,4]triazin-4(3H)-one] | < 1000 nM | –
23 | CC1CN(Cc2ccc(F)cc2)CC1c1nn2c(-c3ccccc3C(F)(F)F)ncc2c(=O)[nH]1 (single isomer, unassigned; (+)) | – | IC50 [2]: < 1000 nM
24 | CC1CN(C(=O)c2cnccn2)CC1c1nn2c(C3CCOCC3)ncc2c(=O)[nH]1 (single isomer, unassigned; (-)) [(−)-2-((3,4-trans)-4-methyl-1-(pyrazine-2-carbonyl)pyrrolidin-3-yl)-7-(tetrahydro-2H-pyran-4-yl)imidazo[5,1-f][1,2,4]triazin-4(3H)-one] | < 1000 nM | –
